Data set [1] deals with ITGB6. To be noted: Bi et al., 2020; cited from earlier work.
For data set [2], the system named is human gingival epithelial cell line (GEC). Briefly: MTT test of cell viability and proliferation. To be noted: 24 h, unencapsulated gefitinib. It counts as cell-based. On the procedure:
The spontaneously immortalized human gingival epithelial cell line (GEC; (Mäkelä et al., 1998)) was maintained in a humidified incubator at +37° C. with 95% relative humidity and 5% CO2 in DMEM supplemented with 23 mM sodium bicarbonate, 20 mM HEPES, 50 μg/ml streptomycin sulfate, 100 U/ml penicillin and 10% heat-inactivated fetal bovine serum (FBS; Gibco). […]
The MTT test (CellTiter Non-radioactive Cell Proliferation Assay, Promega, Madison, WI, USA) was used to assess the effect of the microparticle formulations on cell viability and proliferation (Twarużek et al., 2018). […] The Solubilization/Stop Solution was then added to the culture wells for 24 h to solubilize the formazan product, and the absorbance at 570 nm was recorded with a microplate reader (iMark, Bio-Rad Laboratories, Hercules, CA, USA). […]
In each test, the cells were exposed to the formulation being tested for 24 h and then analyzed for cell numbers using the MTT test. Absorbance values of the untreated samples in each replicate experiment were set to 1, and the mean±s.e.m. of the relative results of 10-18 replicated experiments is presented. *, relative to untreated cells; +, difference between the same concentration of gefitinib and control microparticles; */+, p<0.05; **/++, p<0.01; ***/+++, p<0.001. […]
On the technique in general: Formazan colour is commonly taken as a measure of viable cells.

Data set [3] can be described thus: In-vitro release rate of gefitinib by the dialysis sack method. It counts as physicochemical. The settings on record: artificial saliva and cell culture medium. As for the experimental part:
The release rate of gefitinib from microparticles as described herein into each of two different liquids was tested. The two test liquids were: artificial saliva (SAE0149, Sigma Aldrich) and Dulbecco's Modified Eagle Medium (DMEM; Gibco, Life Technologies, Inc., Burlington, ON, Canada). These liquids were used to simulate the environment of the oral cavity and body fluid, respectively.
In each of these in-vitro experiments, a dry powder of spray-dried microparticles according to one of the tested formulations was mixed into the applicable test liquid at a concentration of 20 μg dry powder per ml of test liquid.
The in-vitro release behaviors of the formulations identified as (*1), (*2), (*3), and (*4) in Table 2 were each tested by the dialysis sack method (cutoff molecular weight 8 kDa; Spectra Por; Spectrum Chemical Mfg. Corp., New Brunswick, NJ, USA). All samples were incubated at room temperature with continuous shaking at 70 rpm. […] The fluid was analyzed for gefitinib content by HPLC. The release rate of gefitinib from suspensions of dry powders in liquid was calculated from the ratio of released gefitinib to the total gefitinib encapsulated in the powders.
The release rate of unencapsulated gefitinib was measured according to the same protocol described above for the spray-dried microparticles.

The test system of data set [4] is ITGB6. Put plainly: Rescue of β6 integrin gene expression in GECs by RT-qPCR. The format is cell-based, human. As for the experimental part:
GECs were seeded into cell culture dishes and allowed to grow to confluency for two days in their complete growth medium. The cells were then rinsed once with PBS and switched to FBS-free DMEM for 2 h in the presence or absence of one of: one of the suspensions of gefitinib-microparticles as above, one of the suspensions of respective control microparticles as above or 0.3 μM gefitinib. HB-EGF (5 ng/ml) and TGF-β1 (2 ng/ml; Millipore) were then added to the cells for a further 24 h.
The cells were then rinsed with PBS and used for RNA isolation and quantitative real-time reverse transcription PCR (RT-qPCR). Briefly, total RNA was extracted using PuroSPIN™ MINI Spin Columns (Luna Nanotech, Inc., Markham, ON, Canada) and the LogSpin method (Yaffe et al., 2012), and RNA concentration and purity were determined by spectrophotometry (NanoDrop One, Thermo Fisher Scientific, Waltham, MA, USA). 1 μg of total RNA was reverse-transcribed into cDNA using the High-Capacity cDNA Reverse Transcription Kit (Applied Biosystems, Thermo Fisher Scientific). […]
Asparagine-linked glycosylation 9 (ALG9) and glyceraldehyde-3-phosphate dehydrogenase (GAPDH) were used as reference genes for the target gene ITGB6 in triplicates. […] The data were analyzed using the Applied Biosystems Relative Quantification Analysis Module. […]
For orientation: In qPCR the cycle at which signal appears reflects the starting amount.

As for `C=CC(=O)Nc1cc2c(Nc3ccc(F)c(Cl)c3)ncnc2cc1OCCCN1CCOCC1` [canertinib], the “blocking of ITGB6 downregulation by HB-EGF” value (“blocking” for short) in data set [1] was “capable of dose-dependently blocking ITGB6 downregulation”.

For the molecule `COc1cc2ncnc(Nc3ccc(F)c(Cl)c3)c2cc1NC(=O)/C=C/CN1CCCCC1` [dacomitinib], the “blocking” value in data set [1] is given as “capable of dose-dependently blocking ITGB6 downregulation”. On to `C#Cc1cccc(Nc2ncnc3cc(OCCOC)c(OCCOC)cc23)c1` [erlotinib], for which the “blocking” value in data set [1] is given as “capable of dose-dependently blocking ITGB6 downregulation”. Consider `COc1cc2ncnc(Nc3ccc(F)c(Cl)c3)c2cc1OCCCN1CCOCC1` [gefitinib], for which, in data set [1], the “blocking” value is recorded as “capable of dose-dependently blocking ITGB6 downregulation”. Also, the “gefitinib concentration giving the corresponding GEC growth inhibition (baseline levels)” value in data set [2] came to 0.3 µM. In addition, in data set [3], the “release rate of gefitinib, in words” value is “quickly released”.

With `CS(=O)(=O)CCNCc1ccc(-c2ccc3ncnc(Nc4ccc(OCc5cccc(F)c5)c(Cl)c4)c3c2)o1` [lapatinib], the “blocking” value in data set [1] is “capable of dose-dependently blocking ITGB6 downregulation”. Turning to “TGF-β1: transforming growth factor-β1, used to upregulate ITGB6”, the “upregulation of ITGB6 expression” value in data set [4] (TGF-β1 alone, 2 ng/ml, 24 h) is “about seven-fold”.

B1: HB-EGF: EGFR ligand heparin-binding EGF-like growth factor (protein, UniProt Q99075 63-148, looked up)
Heparin-binding EGF-like …: DLQEADLDLLRVTLSSKPQALATPNKEEHGKRKKKGKGLGKKRDPCLRKYKDFCIHGECKYVKELRAPSCICHPGYHGERCHGLSL
With B1, the “reduction of the TGF-β1 upregulation of ITGB6” value in data set [4] (addition of HB-EGF 5 ng/ml to TGF-β1) was “about 60%”.

The record behind these values is patent US20240374510A1, “COMPOSITIONS, USES AND METHODS FOR TREATMENT OF PERIODONTAL DISEASE” (THE UNIVERSITY OF BRITISH COLUMBIA, priority 2023, published 2024).
